{"source": "ChEMBL document CHEMBL5725985", "about": "“Substituted pyridines as sodium channel blockers” (2017)", "target": "Sodium channel protein type 9 subunit alpha (Homo sapiens, UniProt Q15858)", "sequence (Q15858 whole entry)": "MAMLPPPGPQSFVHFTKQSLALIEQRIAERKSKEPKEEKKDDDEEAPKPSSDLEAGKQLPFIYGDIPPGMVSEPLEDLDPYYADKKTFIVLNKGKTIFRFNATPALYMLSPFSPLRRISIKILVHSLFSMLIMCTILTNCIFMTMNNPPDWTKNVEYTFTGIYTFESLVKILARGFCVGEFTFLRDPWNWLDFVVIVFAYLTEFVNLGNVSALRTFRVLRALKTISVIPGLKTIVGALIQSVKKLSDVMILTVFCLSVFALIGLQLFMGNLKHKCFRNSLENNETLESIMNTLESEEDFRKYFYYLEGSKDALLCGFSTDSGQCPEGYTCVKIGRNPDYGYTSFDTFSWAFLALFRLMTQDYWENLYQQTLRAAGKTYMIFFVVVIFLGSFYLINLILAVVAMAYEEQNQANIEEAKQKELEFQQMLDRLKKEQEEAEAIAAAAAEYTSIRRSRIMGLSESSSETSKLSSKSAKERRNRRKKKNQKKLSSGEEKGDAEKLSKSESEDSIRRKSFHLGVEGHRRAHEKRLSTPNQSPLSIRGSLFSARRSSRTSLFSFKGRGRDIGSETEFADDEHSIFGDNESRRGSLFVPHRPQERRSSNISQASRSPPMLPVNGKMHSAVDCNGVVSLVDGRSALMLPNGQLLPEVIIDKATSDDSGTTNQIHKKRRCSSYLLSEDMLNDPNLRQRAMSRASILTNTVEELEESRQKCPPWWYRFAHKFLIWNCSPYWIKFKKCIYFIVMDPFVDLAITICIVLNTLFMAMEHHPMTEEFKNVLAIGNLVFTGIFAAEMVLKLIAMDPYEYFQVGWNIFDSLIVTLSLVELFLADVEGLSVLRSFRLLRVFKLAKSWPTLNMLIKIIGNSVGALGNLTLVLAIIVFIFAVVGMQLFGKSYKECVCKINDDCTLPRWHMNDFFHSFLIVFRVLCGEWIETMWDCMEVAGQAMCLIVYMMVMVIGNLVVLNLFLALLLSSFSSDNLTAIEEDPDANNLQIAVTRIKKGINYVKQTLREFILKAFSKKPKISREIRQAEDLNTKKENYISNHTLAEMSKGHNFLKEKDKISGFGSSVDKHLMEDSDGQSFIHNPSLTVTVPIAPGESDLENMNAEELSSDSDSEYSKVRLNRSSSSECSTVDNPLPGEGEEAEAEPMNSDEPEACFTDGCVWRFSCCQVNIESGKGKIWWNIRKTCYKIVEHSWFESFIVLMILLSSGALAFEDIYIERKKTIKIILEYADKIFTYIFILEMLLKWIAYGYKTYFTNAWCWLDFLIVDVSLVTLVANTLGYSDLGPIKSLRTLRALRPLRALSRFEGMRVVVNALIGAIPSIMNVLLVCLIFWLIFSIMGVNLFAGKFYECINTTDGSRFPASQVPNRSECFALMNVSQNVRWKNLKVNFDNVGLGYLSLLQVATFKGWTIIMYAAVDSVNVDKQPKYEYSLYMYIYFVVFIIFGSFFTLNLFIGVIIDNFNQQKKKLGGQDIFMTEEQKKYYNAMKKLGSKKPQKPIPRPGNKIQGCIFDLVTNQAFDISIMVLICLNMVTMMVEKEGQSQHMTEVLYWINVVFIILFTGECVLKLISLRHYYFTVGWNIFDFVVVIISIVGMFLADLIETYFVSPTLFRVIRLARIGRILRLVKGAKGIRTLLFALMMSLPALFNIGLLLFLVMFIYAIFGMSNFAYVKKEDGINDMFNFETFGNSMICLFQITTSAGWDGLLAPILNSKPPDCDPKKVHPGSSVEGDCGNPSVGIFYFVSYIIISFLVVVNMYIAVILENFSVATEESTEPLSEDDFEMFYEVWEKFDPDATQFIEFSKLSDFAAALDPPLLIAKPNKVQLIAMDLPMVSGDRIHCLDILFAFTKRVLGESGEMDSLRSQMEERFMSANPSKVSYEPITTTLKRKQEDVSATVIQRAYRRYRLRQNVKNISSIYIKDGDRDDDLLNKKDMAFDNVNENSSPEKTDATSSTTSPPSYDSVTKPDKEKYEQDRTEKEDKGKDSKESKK", "experiment": "FLIPR Assay: In vitro assays were performed in a recombinant cell line expressing cDNA encoding the alpha subunit (Nav1.7, SCN9a, PN1, NE) of human Nav1.7 (Accession No. NM_002977). The cell line was provided by investigators at Yale University (Cummins et al, J. Neurosci. 18(23): 9607-9619 (1998)). For dominant selection of the Nav1.7-expressing clones, the expression plasmid co-expressed the neomycin resistance gene. The cell line was constructed in the human embryonic kidney cell line, HEK293, under the influence of the CMV […] promoter, and stable clones were selected using limiting dilution cloning and antibiotic selection using the neomycin analogue, G418. Recombinant beta and gamma subunits were not introduced into this cell line. Additional cell lines expressing recombinant Nav1.7 cloned from other species can also be used, alone or in combination with various beta subunits, gamma subunits or chaperones.", "note": "pIC50: −log10 of the molar value.", "data": [{"smiles": "CC(C)C[C@H](NC(=O)C1CC1)C(=O)Nc1cccc(-c2ccc(Oc3ccc(F)cc3)cc2)n1", "values": [{"measurement": "pIC50", "result": 7.44}]}]}
